Columns and labels:
[1] = biological target: 15-PGDH/HPGD (Homo sapiens (Human), UniProt P15428); assay: hPGDH inhibitor screening biochemical assay; details: read-out: hPGDH: Average IC50
How it was run: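 Ten-point dose-response inhibition of 15-PGDH measured by fluorescence (340/485 nm) after 10 min at room temperature with PGE2 (15 μM) and NAD+ (0.25 mM), following 10 min enzyme (10 nM)–compound pre-incubation at 37 °C. Buffer: 50 mM Tris-HCl pH 7.5, 0.01% Tween 20. Percent inhibition relative to 1% DMSO; four-parameter IC50.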

[2] = system: A549 cells; assay: A549 cell-based assay (PGE2 level)
Procedure: 30,000 A549 cells per well were seeded into a tissue culture treated flat bottom 96 well plate, and incubated for 24 hours in a 37° C., […] incubator. After 24 hours of incubation, complete media were replaced with 100 μL of low serum (F12K+1% FBS) media and the plate was incubated for 24 hours in a 37° C., 5% CO2 incubator. After 24 hours of incubation, low serum media was replaced with 80 μL of complete medium (F12K+10% FBS) and 10 μL (10× concentration) of compounds were added and incubated at 37° C. for 30 minutes followed by stimulation of 10 μL (10× concentration) of IL-1b (Final concentration 0.25 ng/mL) overnight in a 37° C., […] incubator. After 24 hours of incubation, the supernatant was collected and the PGE2 level was detected by using Cisbio HTRF kit (Catalog #62P2APEH). Briefly, 5 μL of sample (100-Fold diluted) was dispensed into each sample well. 5 μL of each Prostaglandin E2 standard (Std 0-Std 7) was dispensed into each standard well. 2.5 μL of Prostaglandin E2-d2 working solution was added to all wells except negative controls and 2.5 μL of Anti-Prostaglandin E2-Eu3+ Cryptate working solution was added to all wells. […] After 5 hours of incubation, the plate sealer was removed and the plate was read on a HTRF® compatible reader. Delta F and PGE2 level were calculated as per kit instructions. % Fold change was calculated with respect to DMSO control wells.

[3] = Solubility at pH 7.4; format: physicochemical; details: pH 7.4
[4] = Liver microsome stability assay (HLM); format: in vitro ADME; details: human liver microsomes
Procedure: (§1) A microsomal mixture (microsomes and Kphos buffer) was prepared at a concentration of 1.428 mg/mL in 2 mL tubes. To this microsomal mixture 1.6 μL (1 mM) of test compound and positive control were spiked; from this mixture, 70 μL was transferred to 96 well plate and pre-incubated at 37° C. for 5 min. After pre-incubation, the zero minute time point reaction was stopped using 100 μL of ice-cold acetonitrile containing internal standard and […] (3.33 mM in Kphos buffer) was added. The 45 minute time point reaction was initiated by addition of 30 μL of NADPH (3.33 mM in Kphos buffer) and incubated at 37° C. for 15 and 45 min. Reactions without NADPH and buffer controls (minus NADPH) at 0, 15, and 45 minutes were also incubated to rule out non-NADPH metabolism or chemical instability in the incubation buffer. Incubation reactions were stopped with 100 μL of ice-cold acetonitrile containing internal standard. The plates were centrifuged at 4000 RPM for 15 min and 100 μL aliquots were submitted for analysis by LC-MS/MS. (Verapamil in human liver microsomes (HLM) and rat liver microsomes (RLM) was used as positive controls. Imipramine in mouse liver microsomes (MLM) was used as a positive control.) Samples were monitored for parent compound disappearance in MRM mode (multiple reaction monitoring) using LC-MS/MS. The peak area ratios of analyte versus internal standard were used to calculate the % remaining at the end of 45 minutes in the presence of NADPH.

[5] = Liver microsome stability assay (RLM); format: in vitro ADME; details: rat liver microsomes
Procedure: as §1

[6] = Liver microsome stability assay (MLM); format: in vitro ADME; details: mouse liver microsomes
How it was run: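 Mouse, rat or human liver microsomes (mixture at 1.428 mg/mL) in potassium phosphate buffer, 37 °C, incubated with compound after NADPH addition; minus-NADPH controls included. Parent loss by LC-MS/MS (MRM) with internal standard; value is % remaining at 45 min with NADPH.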

Chain of 15-PGDH/HPGD (P15428 whole entry): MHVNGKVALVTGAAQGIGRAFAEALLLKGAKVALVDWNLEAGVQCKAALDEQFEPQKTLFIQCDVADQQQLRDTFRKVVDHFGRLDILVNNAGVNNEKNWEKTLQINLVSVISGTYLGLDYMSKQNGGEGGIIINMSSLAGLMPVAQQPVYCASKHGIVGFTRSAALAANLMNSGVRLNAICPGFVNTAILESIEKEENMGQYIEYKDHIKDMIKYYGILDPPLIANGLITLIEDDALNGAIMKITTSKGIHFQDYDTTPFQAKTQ

| Structure (SMILES) | IC50 [1] | activity in the A549 cell-based assay (FIG. 1) [2] | Solubility: Solubility at pH 7.4 (μM) [3] | HLM + NADPH (% remaining at 45 min) [4] | RLM + NADPH (% remaining at 45 min) [5] | MLM + NADPH (% remaining at 45 min) [6] |
| --- | --- | --- | --- | --- | --- | --- |
| N#Cc1ccc(-n2ccc3cc(C(=O)N4CCC(F)CC4)cnc32)cc1 [MF-DH-342] | < 100 nM | displayed activity | – | – | – | – |
| O=C(c1cnc2c(c1)ncn2-c1cccc(Cl)c1)N1CCCCC1 [MF-PGDH-020] | < 100 nM | – | 150 μM | 87% | 23% | 30% |

Source: US11345702B1 (Myoforte Therapeutics, Inc., priority 2020, dated 2022)
